The values that follow come from US6794398B1, “Preventive/remedies for liver diseases” (Mitsubishi Pharma Corporation, priority 1999, dated 2004).

Structures are written as SMILES.

Experiment [1] deals with Hepatic stellate cells (HSC). In words: Effect on cell morphology of hepatic stellate cell. Conditions: Y-27632 30 μM, DMEM with 1% FCS, one hour, phase contrast microscope. The experiment is classed as cell-based, rat. How it is done: Hepatic stellate cells (HSC) were prepared from the liver of male Wistar rat according to the method of Friedman et al (Friedman S. L, et al., Proc Natl Acad Sci USA 1985; 82: 8681-8685). HSC were cultured in Dulbecco's modified Eagle's medium (DMEM) containing 20% fetal calf serum (FCS) and the cells after 3 to 8 passages were used. HSC to be subjected to the experiment were sown in a dish treated with fibronectin (10 μg/ml), cultured in DMEM medium containing 20% FCS for 24 hours and changed to DMEM medium containing 1% FCS or DMEM medium containing Y-27632 (30 μM) and 1% FCS. One hour later, HSC were fixed with a 3.7% formaldehyde solution and observed under a phase contrast microscope.

Experiment [2] relates to Hepatic stellate cells (HSC). Briefly: Effect on production of collagen I in hepatic stellate cells (ELISA). Format: cell-based, rat. Particulars: Y-27632 30 μM, DMEM without FCS, 48 hours of culture, n=4. The protocol:
In the same manner as in Experimental Example 1, HSC were prepared from rat liver and cultured in DMEM medium containing 20% FCS for 8 days and changed to DMEM medium without FCS or DMEM medium containing Y-27632 (30 μM) but without FCS. After 48 hours of culture, the amount of collagen I contained in the supernatant was measured by ELISA (enzyme-linked immunosorbent assay) (Moshage H, et al., Hepatology 1990; 12: 511-518). As a result, the amount was 19.5±3.0 μg/μg DNA for the group without Y-27632 and 8.2±2.3 μg/μg DNA for the group with the addition of Y-27632, showing a significant low level for the group with the addition of Y-27632 (p<0.01, n=4).
(In general: An ELISA detects its analyte on a solid surface through an enzyme-linked reagent.)

The subject of experiment [3] is rat with hepatic fibrosis induced by dimethylnitrosamine. Briefly: Effect on rat with hepatic fibrosis induced by dimethylnitrosamine. Format: in vivo. Conditions: 30 mg/kg orally every day for 4 weeks, male Wistar rats, liver, 5 rats. How it is done:
1% Dimethylnitrosamine (100 μl/100 g rat body weight) was intraperitoneally administered to male Wistar rats for 3 consecutive days per week for 4 weeks (12 times in total) to prepare a hepatic fibrosis model rat. To the Y-27632 administration group, Y-27632 (30 mg/kg) was orally administered every day for 4 weeks from the day when the dimethylnitrosamine administration was started. To the control group, physiological saline was administered. Four weeks later, the liver was removed and the level of fibrogenesis of the tissue, collagen content and hydroxyproline amount were measured.
The level of fibrogenesis was measured as follows. A part of the removed liver was fixed with a formalin solution overnight, and a paraffin embedded piece was prepared and stained by Masson trichrome stain. The stained images were input in a computer through a digital camera (Fujix HC-1000, Fuji Film, Tokyo, Japan) and, using a computer-assisted morphometric analyzer (MacScope, Mitani corporation, Fukui, Japan), the area ratio of the collagen portion stained in bright green was determined as the degree of fibrogenesis.
The amout of tissue collagen was measured as follows according to the method of Shiba et al. (Shiba M, et al. Liver, 1998, Jun; 18(3): 196-204). That is, a part of the removed liver was homogenized with a 33-fold amount (ml/g) of 0.5M aqueous acetic acid solution in a Polytron PCU-2 homogenizer (Kinematica, Luzern, Switzerland). The homogenate was subjected to ultrasonication treatment for 2 min after freeze-thawing. After extraction with an acid, a fraction containing insoluble collagen was heated at 80° C. for 60 minutes to convert the insoluble collagen to water-soluble gelatin. The amount of gelatin was measured with a Sircol collagen assay kit (Biocolor, Belfast, Northern Ireland).
The amount of hydroxyproline was measured as follows. […] The amount of hydroxyproline was measured according to the method of Fujiwara et al. (Fujiwara et al., Anal. Biochem., 1987; 166: 72-8) with a high performance liquid chromatography system (SRL Inc., Tachikawa, Japan).

With `C[C@@H](N)[C@H]1CC[C@H](C(=O)Nc2ccncc2)CC1` [Compound Y-27632, (+)-trans-4-(1-aminoethyl)-1-(4-pyridylcarbamoyl)cyclohexane 2HCl·H2O], the “cell morphology of hepatic stellate cells” value in experiment [1] is recorded as “spindle-like shape with dendroidal protrusions (non-active type)”. Also, in experiment [2], the “amount of collagen I contained in the supernatant” value came to 8.2±2.3 μg/μg DNA. In experiment [3], the “content of collagen in the tissue” value was 601.3±67.7 μg/100 mg-rat liver weight; the “content of hydroxyproline in the tissue” value is recorded as 29.8±9.1 μmol/g-rat liver weight; the “level of fibrogenesis (area ratio of collagen portion, Masson trichrome stain)” value worked out at 6.3±0.7%.
